The record followed here is ChEMBL document CHEMBL1201862, “PubChem BioAssay data set” (2004).

The term EC50 denotes the midpoint of the concentration-response curve. The AC50 is the concentration giving half of the maximal activity seen. A word on the CC50: it is the concentration at which the toxic effect on the cells reaches its halfway point. As usually defined, the IC50 is the concentration needed to halve the response being measured.

Molecules are shown by their SMILES. Active and inactive are the calls of the source. Cut-off read from the data, not from the text of the source, for most assays here: actives have a measured EC50 and inactives only a lower limit.

The target in experiment [1] is T1, Protein RecA (Mycobacterium tuberculosis, UniProt P9WHJ3).
T1 sequence (P9WHJ3 whole entry): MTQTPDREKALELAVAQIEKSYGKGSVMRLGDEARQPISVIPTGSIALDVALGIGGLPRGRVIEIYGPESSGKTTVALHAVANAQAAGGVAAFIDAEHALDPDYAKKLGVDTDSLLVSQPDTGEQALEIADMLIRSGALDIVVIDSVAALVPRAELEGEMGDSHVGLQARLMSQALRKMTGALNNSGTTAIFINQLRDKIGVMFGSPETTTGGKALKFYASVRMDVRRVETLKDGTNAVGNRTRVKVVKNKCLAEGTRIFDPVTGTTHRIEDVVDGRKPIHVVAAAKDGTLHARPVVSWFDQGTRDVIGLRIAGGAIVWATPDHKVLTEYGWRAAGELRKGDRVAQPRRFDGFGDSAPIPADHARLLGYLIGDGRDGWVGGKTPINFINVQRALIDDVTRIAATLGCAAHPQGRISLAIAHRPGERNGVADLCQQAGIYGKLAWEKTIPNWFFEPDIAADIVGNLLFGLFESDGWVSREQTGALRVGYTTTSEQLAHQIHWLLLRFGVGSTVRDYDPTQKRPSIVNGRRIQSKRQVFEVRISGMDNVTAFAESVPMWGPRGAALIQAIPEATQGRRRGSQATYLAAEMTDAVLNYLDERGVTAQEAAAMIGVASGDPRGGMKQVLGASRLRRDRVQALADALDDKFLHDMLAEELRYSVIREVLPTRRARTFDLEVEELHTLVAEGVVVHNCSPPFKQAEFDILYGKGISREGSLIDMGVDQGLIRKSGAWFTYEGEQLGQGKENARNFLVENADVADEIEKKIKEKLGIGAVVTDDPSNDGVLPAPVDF
Briefly: Fluorescence Cell-Free Homogeneous Dose Retest to Identify Inhibitors of RecA-Intein Splicing Activity. [Related pubchem assays (depositor defined):AID2097, AID2223, AID489010, AID492950]. It counts as functional.

Experiment [2] can be described thus: Luminescence Cell-Based Dose Confirmation HTS to Identify Inhibitors of Platelet Dense Granule Release. [Related pubchem assays: 1663 (Primary HTS), 1678 (Summary of Project)]. It counts as functional.
Experiment [3] concerns the target Luciferin 4-monooxygenase (Photinus pyralis, UniProt P08659). The experiment is described as follows: firefly luciferase enzyme inhibitors, dose response, biochemical, luminescence (AID 1891).
Experiment [4] has as its target T2, Replicative DNA helicase DnaB (Mycobacterium tuberculosis, UniProt P9WMR3).
T2 sequence (P9WMR3 whole entry): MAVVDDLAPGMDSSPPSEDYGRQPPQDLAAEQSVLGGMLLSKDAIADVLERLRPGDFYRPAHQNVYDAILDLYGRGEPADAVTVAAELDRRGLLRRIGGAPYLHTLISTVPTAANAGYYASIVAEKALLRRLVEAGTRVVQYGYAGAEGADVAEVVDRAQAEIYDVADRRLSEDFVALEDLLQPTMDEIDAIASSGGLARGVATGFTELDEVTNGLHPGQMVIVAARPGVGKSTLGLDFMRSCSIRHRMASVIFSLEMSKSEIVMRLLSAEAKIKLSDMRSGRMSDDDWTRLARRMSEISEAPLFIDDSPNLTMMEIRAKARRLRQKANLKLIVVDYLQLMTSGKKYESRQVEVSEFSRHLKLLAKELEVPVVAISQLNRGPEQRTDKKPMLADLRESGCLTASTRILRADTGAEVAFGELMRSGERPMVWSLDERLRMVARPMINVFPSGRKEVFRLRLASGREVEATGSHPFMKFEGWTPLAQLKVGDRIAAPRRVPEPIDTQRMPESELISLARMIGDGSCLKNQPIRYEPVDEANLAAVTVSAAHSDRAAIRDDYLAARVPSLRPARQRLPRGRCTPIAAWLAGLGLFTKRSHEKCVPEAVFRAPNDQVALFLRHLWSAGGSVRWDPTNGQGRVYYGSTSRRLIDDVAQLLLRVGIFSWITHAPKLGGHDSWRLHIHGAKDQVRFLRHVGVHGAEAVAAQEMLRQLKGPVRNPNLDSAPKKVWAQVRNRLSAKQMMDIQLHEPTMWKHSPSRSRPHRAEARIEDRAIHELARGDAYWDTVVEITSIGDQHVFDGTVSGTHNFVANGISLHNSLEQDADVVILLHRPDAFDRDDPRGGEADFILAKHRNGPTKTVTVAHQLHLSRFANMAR
The experiment is described as follows: DnaB intein splicing inhibitors, dose response, biochemical, cell-free fluorescence (AID 449749). It counts as functional.

Experiment [5] has as its target FAD-linked sulfhydryl oxidase ALR (Homo sapiens, UniProt P55789). Briefly: inhibitors of human ALR sulfhydryl oxidase, dose response, biochemical, H2O2 detection, luminescence, cherry-pick (AID 493248).
Experiment [6] deals with H4. The experiment is described as follows: Luminescence Cell-Based Dose Response HTS to Identify Activators of 5'UTR Stem-Loop Driven Prion Protein mRNA Translation in H4 Neuroglioblastoma Cells. [Related pubchem assays: 1829 (Project Summary), 1814 (Primary HTS)]. The format is functional. To be noted: Homo sapiens.
The nature of experiment [7]: Luminescence Cell-Based Dose Confirmation HTS to Identify Activators of 5'UTR Stem-Loop Driven Alpha-Synuclein mRNA Translation in H4 Neuroglioblastoma Cells. [Related pubchem assays: 1829 (Project Summary), 1814 (Primary HTS)]. The format is functional.
The nature of experiment [8]: HEp-2 cell cytotoxicity, dose response, cytotoxicity control for RSV inhibitor project, HTS (AID 2410). The format is functional. To be noted: human respiratory syncytial virus.
Experiment [9] can be described thus: Luminescence Cell-Based Dose Response HTS to Identify Activators of Luciferase Translation or Activity in H4 […] Cells. [Related pubchem assays: 1829 (Project Summary), 1814 (Primary HTS)]. It counts as functional.
A short description of experiment [10]: cytotoxicity toward NIH3T3 fibroblasts, dose response, counter-screen, cell-based, ATP luminescence, mouse fibroblasts (AID 2010).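 Note: cells exposed to compound for about 90 hours before reading.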 The format is functional. For orientation: Counterscreens check selectivity or assay interference.
A short description of experiment [11]: inhibitors of intracellular T. cruzi replication, confirmation, NIH3T3 host cells, beta-gal luminescence (AID 2044).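 Note: intracellular parasites grown in NIH/3T3 mouse fibroblasts as host cells; luminescent beta-galactosidase reporter signal from transgenic T. cruzi replicating inside host cells; inhibitors lower the luminescence signal.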 The format is functional, cell-based.
Experiment [12] has as its system H9c2. Briefly: cells. It counts as functional, cell-based. The settings on record: Rattus norvegicus, H9c2, Myocardium.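 Note: confirmatory concentration-response retest of ultra-high-throughput screening hits for modulation of myocardial damage; cell death induced by hydrogen peroxide oxidative stress; compound pretreatment for 60 min then peroxide exposure for 2 h; potency is for protecting the cells against peroxide damage rather than for killing them.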
Experiment [13] concerns the target T3, Zinc finger protein mex-5 (Caenorhabditis elegans, UniProt Q9XUB2).
T3 sequence (Q9XUB2 whole entry): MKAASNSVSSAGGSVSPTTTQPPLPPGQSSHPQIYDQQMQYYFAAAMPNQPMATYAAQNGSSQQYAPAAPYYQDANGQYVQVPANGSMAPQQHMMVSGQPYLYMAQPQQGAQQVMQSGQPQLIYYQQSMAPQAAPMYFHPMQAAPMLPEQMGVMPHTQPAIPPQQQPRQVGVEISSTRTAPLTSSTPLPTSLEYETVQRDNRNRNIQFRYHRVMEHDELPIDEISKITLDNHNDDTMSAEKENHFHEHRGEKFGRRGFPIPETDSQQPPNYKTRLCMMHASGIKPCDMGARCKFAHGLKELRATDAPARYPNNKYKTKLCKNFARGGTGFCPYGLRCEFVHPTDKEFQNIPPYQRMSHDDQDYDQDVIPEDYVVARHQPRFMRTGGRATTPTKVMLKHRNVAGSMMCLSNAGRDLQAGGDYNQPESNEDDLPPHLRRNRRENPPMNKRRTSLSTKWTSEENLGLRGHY
The experiment is described as follows: MEX-5/TCR-2 RNA interaction inhibitors, dose response, biochemical, C. elegans, fluorescence polarization (AID 1960). (In general: In fluorescence polarisation assays a small probe gives low polarisation when free and higher when bound to something large.)

In experiment [14] the target is T4, RNA-binding protein pos-1 (Caenorhabditis elegans, UniProt G5EF15).
T4 sequence (G5EF15 whole entry): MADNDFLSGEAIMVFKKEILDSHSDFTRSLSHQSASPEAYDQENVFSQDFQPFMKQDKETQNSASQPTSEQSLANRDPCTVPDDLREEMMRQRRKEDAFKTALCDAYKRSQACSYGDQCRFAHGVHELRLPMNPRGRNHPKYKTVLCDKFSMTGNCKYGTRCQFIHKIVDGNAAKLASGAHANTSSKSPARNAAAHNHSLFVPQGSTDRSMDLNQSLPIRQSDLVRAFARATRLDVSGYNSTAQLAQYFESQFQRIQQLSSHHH
Briefly: inhibitors of POS-1/mex-3 RNA binding, dose response, biochemical, fluorescence polarization (AID 1964).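 Note: purified POS-1 fused to maltose binding protein made in E. coli; potency of compounds blocking POS-1 binding to fluorescent RNA.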

Experiment [15] addresses T5, Fatty acid synthase (Homo sapiens, UniProt P49327). Briefly: FAS thioesterase domain inhibitors, dose response, biochemical, kinetic fluorescence intensity (AID 624326).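 Note: rate of fluorescence rise from hydrolysis of a fluorogenic O-methyl fluorescein ester substrate.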 It counts as functional.
Experiment [16] has as its target T5, Fatty acid synthase. Briefly: FAS thioesterase domain inhibitors, dose response, biochemical, endpoint fluorescence intensity, uHTS hits (AID 624327).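 Note: fluorescence from hydrolysis of an O-methyl fluorescein acyl ester substrate by the enzyme.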 It counts as functional.

Chain of Luciferin 4-monooxygenase (P08659 whole entry): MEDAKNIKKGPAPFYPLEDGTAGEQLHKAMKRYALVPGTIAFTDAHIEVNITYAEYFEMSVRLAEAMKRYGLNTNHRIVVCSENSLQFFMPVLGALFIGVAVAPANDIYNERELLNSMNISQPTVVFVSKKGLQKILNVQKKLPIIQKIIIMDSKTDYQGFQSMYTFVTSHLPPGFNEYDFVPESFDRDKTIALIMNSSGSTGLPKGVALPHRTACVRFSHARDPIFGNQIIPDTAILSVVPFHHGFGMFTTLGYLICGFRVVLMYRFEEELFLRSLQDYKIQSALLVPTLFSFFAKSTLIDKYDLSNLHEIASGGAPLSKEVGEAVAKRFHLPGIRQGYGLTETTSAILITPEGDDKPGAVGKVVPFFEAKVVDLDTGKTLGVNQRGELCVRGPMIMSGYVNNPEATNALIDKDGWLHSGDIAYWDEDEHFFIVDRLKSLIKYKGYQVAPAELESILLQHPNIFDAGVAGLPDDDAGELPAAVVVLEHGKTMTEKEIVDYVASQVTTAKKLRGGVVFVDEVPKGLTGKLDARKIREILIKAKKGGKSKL
T5 sequence (P49327 whole entry, the tested form may be a part): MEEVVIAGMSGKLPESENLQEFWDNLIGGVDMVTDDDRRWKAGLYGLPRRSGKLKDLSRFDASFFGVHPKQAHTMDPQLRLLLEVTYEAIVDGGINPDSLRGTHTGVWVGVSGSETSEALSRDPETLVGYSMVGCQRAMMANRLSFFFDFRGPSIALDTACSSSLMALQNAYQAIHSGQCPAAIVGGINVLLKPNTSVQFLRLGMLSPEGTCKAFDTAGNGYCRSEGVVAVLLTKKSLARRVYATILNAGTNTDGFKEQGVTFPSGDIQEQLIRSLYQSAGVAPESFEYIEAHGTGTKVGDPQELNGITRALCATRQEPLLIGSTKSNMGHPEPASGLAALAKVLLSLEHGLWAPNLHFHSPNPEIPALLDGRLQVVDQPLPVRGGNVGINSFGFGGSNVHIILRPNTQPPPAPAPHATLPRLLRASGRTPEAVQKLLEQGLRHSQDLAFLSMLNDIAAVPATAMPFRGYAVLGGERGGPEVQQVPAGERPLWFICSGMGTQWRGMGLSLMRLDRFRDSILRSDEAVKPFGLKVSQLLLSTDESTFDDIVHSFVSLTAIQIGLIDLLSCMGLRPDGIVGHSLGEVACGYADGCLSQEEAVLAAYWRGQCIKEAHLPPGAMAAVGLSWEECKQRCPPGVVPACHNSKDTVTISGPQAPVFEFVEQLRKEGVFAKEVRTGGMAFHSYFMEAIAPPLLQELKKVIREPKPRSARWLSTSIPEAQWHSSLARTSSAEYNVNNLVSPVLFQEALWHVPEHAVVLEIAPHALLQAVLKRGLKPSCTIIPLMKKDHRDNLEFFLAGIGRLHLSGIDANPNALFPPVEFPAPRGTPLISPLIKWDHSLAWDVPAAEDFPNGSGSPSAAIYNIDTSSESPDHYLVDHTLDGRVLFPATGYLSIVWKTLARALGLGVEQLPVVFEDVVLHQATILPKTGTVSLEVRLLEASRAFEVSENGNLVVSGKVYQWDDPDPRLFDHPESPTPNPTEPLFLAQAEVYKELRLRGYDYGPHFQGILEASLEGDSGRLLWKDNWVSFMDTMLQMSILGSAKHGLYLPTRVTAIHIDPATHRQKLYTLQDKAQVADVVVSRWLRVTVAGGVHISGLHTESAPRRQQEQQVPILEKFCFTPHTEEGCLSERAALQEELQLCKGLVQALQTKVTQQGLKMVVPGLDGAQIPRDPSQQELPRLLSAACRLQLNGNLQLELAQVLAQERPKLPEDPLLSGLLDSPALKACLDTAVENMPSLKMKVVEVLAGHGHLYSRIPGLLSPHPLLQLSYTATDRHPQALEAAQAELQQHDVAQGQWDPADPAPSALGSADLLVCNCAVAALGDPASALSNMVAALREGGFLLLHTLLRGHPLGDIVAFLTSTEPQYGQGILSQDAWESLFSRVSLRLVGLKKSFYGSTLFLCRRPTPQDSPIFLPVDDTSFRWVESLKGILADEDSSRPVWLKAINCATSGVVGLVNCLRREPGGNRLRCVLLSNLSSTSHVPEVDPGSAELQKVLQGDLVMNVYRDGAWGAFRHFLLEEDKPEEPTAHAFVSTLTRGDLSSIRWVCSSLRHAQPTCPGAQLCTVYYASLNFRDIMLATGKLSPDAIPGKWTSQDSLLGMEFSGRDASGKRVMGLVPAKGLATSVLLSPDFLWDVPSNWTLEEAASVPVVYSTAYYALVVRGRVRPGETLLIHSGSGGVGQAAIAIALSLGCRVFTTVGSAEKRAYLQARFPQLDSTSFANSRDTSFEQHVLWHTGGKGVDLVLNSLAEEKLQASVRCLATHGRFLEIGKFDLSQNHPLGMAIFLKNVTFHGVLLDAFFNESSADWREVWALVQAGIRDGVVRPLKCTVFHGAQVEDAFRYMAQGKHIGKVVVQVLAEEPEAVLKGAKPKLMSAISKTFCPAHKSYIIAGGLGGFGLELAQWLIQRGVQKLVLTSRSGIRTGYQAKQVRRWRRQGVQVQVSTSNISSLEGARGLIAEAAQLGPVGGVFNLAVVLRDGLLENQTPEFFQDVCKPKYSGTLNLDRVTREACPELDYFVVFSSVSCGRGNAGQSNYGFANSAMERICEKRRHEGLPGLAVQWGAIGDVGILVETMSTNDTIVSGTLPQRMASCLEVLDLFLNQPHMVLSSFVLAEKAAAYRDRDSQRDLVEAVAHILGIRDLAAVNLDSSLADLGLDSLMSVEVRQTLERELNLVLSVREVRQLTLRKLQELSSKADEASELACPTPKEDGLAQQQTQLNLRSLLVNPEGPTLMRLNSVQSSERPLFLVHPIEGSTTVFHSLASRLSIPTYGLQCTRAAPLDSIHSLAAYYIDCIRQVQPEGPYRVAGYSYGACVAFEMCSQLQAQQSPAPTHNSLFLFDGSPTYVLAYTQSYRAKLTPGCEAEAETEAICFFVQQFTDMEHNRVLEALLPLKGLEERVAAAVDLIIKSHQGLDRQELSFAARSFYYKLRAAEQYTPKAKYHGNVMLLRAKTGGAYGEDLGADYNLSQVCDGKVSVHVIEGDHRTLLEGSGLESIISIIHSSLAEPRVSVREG
Chain of FAD-linked sulfhydryl oxidase ALR (P55789 whole entry): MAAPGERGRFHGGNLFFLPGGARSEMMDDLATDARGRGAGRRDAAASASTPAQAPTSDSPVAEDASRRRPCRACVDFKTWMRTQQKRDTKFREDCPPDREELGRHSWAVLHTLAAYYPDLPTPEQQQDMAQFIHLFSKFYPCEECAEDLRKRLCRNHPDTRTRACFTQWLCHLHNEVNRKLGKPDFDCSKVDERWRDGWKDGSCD

`N#CC1=C(N)C(C#N)(C#N)C(c2cccnc2)C2CN(C(=O)OCc3ccccc3)CC=C12` (stereo unspecified): the concentration giving a half-maximal response (EC50) was 2.59 µM (active) in experiment [1], 15.6 µM (active) in experiment [2] and > 112 µM (not active) in [3]. The AC50 in [4] is > 380 µM (inactive).

As to `CN(C)c1ccc(NC(=O)CN2CCN(S(=O)(=O)c3cc(Cl)ccc3Cl)CC2)cc1`, the half-maximal activity concentration (AC50) in experiment [5] is 2.31 µM (active). Moreover, the 50% effective concentration (EC50) in experiment [2] and in experiment [3] was > 112 µM (not active) in each case.

For `Cc1ccc(-n2c(C)nc3c(cnn3-c3ccc(C)c(C)c3)c2=O)cc1C`, the EC50 in [6] was 43.9 µM (active); in experiment [7], 10.2 µM (active); in [9] it was 8.78 µM (active). In experiment [8], the 50% cytotoxic concentration (CC50) was 48.5 µM (active).

Regarding `O=C(N=Nc1c(O)n(C2OC(=O)c3ccccc32)c2ccccc12)c1ccco1` (stereo unspecified), the EC50 in experiment [6] was 15 µM (active); in experiment [7], 11.5 µM (active); in experiment [9], 11.4 µM (active).

As to `O=C(COc1ccccc1[N+](=O)[O-])Nc1ccc(NC(=O)c2cc3ccccc3o2)cc1`, the EC50 in experiment [6], in experiment [7] and in [9] was > 120 µM (not active) in each case.

As for `Cc1c2c(nc3ccccc13)CCC(C(C)(C)C)C2` (stereo unspecified), the 50% effective concentration (EC50) in experiment [6] is 12.7 µM (active); in experiment [10], > 60 µM (not active); in experiment [7], 26.6 µM (active); in [11] it was 3.67 µM (active); in [9], 4.26 µM (active). Moreover, the half-maximal cytotoxic concentration (CC50) in experiment [8] was 44.4 µM (active).

Turning to `CCc1nc(N2CCN(C(=O)c3ccco3)CC2)c2oc3ccccc3c2n1`, the concentration for a half-maximal effect (EC50) in [2] and in experiment [3] was > 112 µM (not active) each time. Also, the IC50 in experiment [12] is > 79 µM (inactive).

In the case of `CN1C(=O)C(=Cc2c[nH]c3ccc(Br)cc23)C(=O)N(C)C1=O`, the 50% effective concentration (EC50) in experiment [13] and in experiment [14] was > 300 µM (not active) each time.

With `O=C(Nc1cccc(Cl)c1)c1ccc2ncsc2c1`, the EC50 is 34.6 µM (active) in experiment [6], 4.28 µM (active) in experiment [7] and 91.3 µM (active) in [9].

As for `CCOC(=O)C1=C(Nc2ccccc2)S/C(=C\c2cn(CC(=O)N3CCCC3)c3ccccc23)C1=O`, the EC50 in experiment [13] is 26.2 µM (active); in experiment [14], 47.5 µM (active).

For the compound `COc1cccc(N2C(=O)/C(=C/c3ccc(C)o3)C(=O)NC2=S)c1`, the results for the concentration for a half-maximal effect (EC50) in experiment [13] and in [14] were 44.5 µM (active) and > 300 µM (not active), respectively.

Consider `CN1CCc2c(sc3nc(SCC(=O)NCc4ccco4)n(-c4ccccc4)c(=O)c23)C1`, for which the 50% effective concentration (EC50) in experiment [6] is 25.5 µM (active); in [7], 17.9 µM (active); in experiment [9] it was 10.2 µM (active).

Turning to `c1ccc(-c2ccc(-c3n[nH]cc3CN3CCC(N4CCSCC4)CC3)cc2)cc1`, the values for the EC50 in experiment [6], in experiment [7] and in [9] were 12.4 µM (active), 14.4 µM (active) and 15.8 µM (active), respectively.

As to `COc1ccccc1N1CC(C(=O)Nc2nnc(SCC(=O)NC(C)C)s2)CC1=O` (stereo unspecified), the EC50 in [13] and in experiment [14] was > 300 µM (not active) in each case.

`CCOc1cccc2cc(C(=O)NCCC3=CCCCC3)c(=O)oc12`: the EC50 in experiment [6] was 25 µM (active); in experiment [7] it was 7.15 µM (active); in [9], > 120 µM (not active). Besides, the half-maximal inhibitory concentration (IC50) in experiment [15] was 4.15 µM (active); in experiment [16], 3.95 µM (active).

Take `COc1cc(C2NC(S)=NC(C)=C2C(=O)Nc2ccc(C)cc2)ccc1O` (stereo unspecified): the EC50 in experiment [6] was 21.8 µM (active); in [7], 15.1 µM (active); in experiment [9], 22.4 µM (active).
